Melting point data for 66 compounds are collected here from a melting point compilation (Tetko et al.; mined from patent text by program, amines drawn as free bases though some values may be those of a salt).

The structures appear in SMILES notation.

With `Cn1cc(CO)c(=O)c2ccc(Br)cc21`, the melting point (as a rule, the temperature, or range, at which the solid turns liquid) is more than 300 °C.
Compound `C1CCCCN2CCOCCOCCN(CCC1)CCOCCOCC2` showed a melting point of 90 to 91 °C.
`Nc1cc(N=c2sc(=S)n3n2CCCC3)c(F)cc1Cl` yielded a melting point of 59 to 61 °C.
In turn, `CCC(=O)c1[nH]c(=O)[nH]c1C` registered a melting point of 270 to 271 °C.
As for `COc1ccc(N2C(=O)[C@H](O[Si](C(C)C)(C(C)C)C(C)C)[C@@H]2CC(C)C)cc1`, the figure is 59 to 60 °C; as for `Cc1ccc2c(c1)[C@H](Nc1nc(N)nc(C(F)F)n1)[C@@H](C)C2`, 132 to 134 °C; as for `Cc1cc(OC2CCCCO2)c(C)cc1OCCCC(C)(C)C(=O)O` (stereo unspecified), 122 to 124 °C.
As for `CCCCCC(=O)c1cccc(NC(=O)c2ccc(Cl)cc2O)c1`, the figure is 134 to 136 °C; as for `O=CNc1ccccc1O`, 129 °C.
The same measure for `CCCc1cccnc1N`: 25 to 27 °C; for `CCCCSc1cc(C(=O)OCC)cc(S(N)(=O)=O)c1Cl`: 160 to 162 °C; for `Cc1c(CO)nc2n1CCc1ccccc1C2=C1CCN(C)CC1`: 167 °C.
Turning to `COc1ccc2c(c1)nc(COc1ccc(CC3SC(=O)NC3=O)cc1)n2C` (stereo unspecified), the melting point lay within 209 to 210 °C.
The same measure for `N#CCOc1ccc2cc(-c3cc4ccccc4o3)ccc2c1Cl`: 162 to 163 °C; for `CC1=C(C)C[C@H]2C(=O)CC(=O)[C@H]2C1`: 157 to 158 °C; for `O=C(Cc1cn(-c2ccccc2)nc1-c1ccc(Cl)cc1)NO`: 168 to 169 °C.
As to `CC1(C)CN2C(N)=NC(c3ccc(OC(F)(F)F)cc3)(c3cccc(-c4cccnc4F)c3)C2=N1` (stereo unspecified), the melting point lay within 89 to 97 °C.
In turn, `O=C(C(=O)N(CCO)CCO)c1ccc(OCCOc2ccc3ccccc3c2)cc1` showed a melting point of 128 to 133 °C.
The same measure for `COC(=O)C1CC(=O)N(c2ccc(C)cc2)C1` (stereo unspecified): 71 to 74 °C; for `N#Cc1cccc2c1NC(=O)C2c1ncnc2nn(C3CCCC3)cc12` (stereo unspecified): more than 380 °C.
As to `Cc1cccc(C)c1COc1cc(C(=O)N(C)C)cc2c1nc(C)n2C`, the melting point was 180 °C.
Compound `CCOC(=O)COc1cc2c(c(Cl)c1Cl)C(=O)C(c1ccc(F)cc1)C2` (stereo unspecified) displayed a melting point of 143 to 144 °C.
The same measure for `O=C1O[C@@H](CNC(=S)C(F)F)CN1c1ccc(N2CCCS(=O)(=O)CC2)c(F)c1`: 128 to 130 °C; for `O=Cc1c2ccccc2cc2cc3ccccc3cc12`: 163 to 164 °C; for `C=C1CCc2c(F)c(F)cc3c(=O)c(C(=O)OCC)cn1c23`: 272 to 274 °C.
`COc1ccc(Nc2ncnc(NCCO)n2)cc1` registered a melting point of 160 to 164 °C.
Compound `COc1ccc(C2(O)CCSCC2)cc1OC1CCCC1` gave a melting point of 83 to 85 °C.
The same measure for `COC(=O)c1oc2c(sc3ccccc32)c1OC`: 145 to 146 °C; for `COc1ccc2c(c1)C(=O)C(=O)C=C2`: 78 to 80 °C; for `COC(=O)CCN1CCCC2(Cc3ccc(Br)cc3)C(=O)N(c3cc(Cl)nc(Cl)c3)C(=O)N12` (stereo unspecified): 157 °C.
For the compound `CCc1ccc(OCCCN2CCN(c3ccc(Cl)nn3)CC2)cc1`, the melting point was 123 to 125 °C.
The same measure for `CC1=C(C(=O)Nc2cccc(C(=O)OC(C)C)c2)SCCO1`: 92 to 94 °C.
`O=C(CCCCCOc1ccc(-c2ccccc2)cc1)NO` registered a melting point of 151 to 152 °C.
For `O=C1CCCC(=NNc2ccccc2)C1`, the melting point lay in the range of 187 to 189 °C.
In the case of `O=Cc1c(O)ccc2ncccc12`, the melting point lay in the range of 136 to 137 °C.
In the case of `CNC(=O)C=C(C)C=CC=C(C)C=Cc1c(C)cc(OC)c(C)c1C`, the melting point was found to be 206 °C.
As for `Cn1cc(Cc2ccccc2)c(=O)c(-c2cccc(C(F)(F)F)c2)c1`, the figure is 98 to 100 °C; as for `Oc1ccc(C2CCOC2(c2ccccc2)c2ccc(O)cc2)cc1` (stereo unspecified), 194 to 196 °C.
The same measure for `CCOC(=O)CCCn1c(Nc2cnc(N(C)C)cc2C)nc2c(Cl)ccc(C(CC)CC)c21`: 158 to 159 °C; for `CC(=O)OC1CC2CCC3C4CCC(C(C)=O)C4(C)CC(=O)C3C2(C)CC1Br` (stereo unspecified): 154 to 156 °C; for `Cc1ccccc1-c1ccc(C(=O)N2Cc3ccc(C(=O)NCCc4ccc5c(c4)OCO5)n3Cc3ccccc32)cc1C`: 154 to 157 °C.
As for `Cc1cc(N2CCN(Cc3ccc(N)cc3)C2=O)sc1C(=O)NCc1cccnc1`, the figure is 118 to 120 °C; as for `CCCCn1cc(C(=O)OCC)c(NC(=O)Nc2ccccc2)n1`, 118 to 120 °C.
Regarding `NC(=O)c1c(F)cc(-c2ccc3nnn(Cc4ccc5ncccc5c4)c3n2)cc1F`, the melting point was 272 to 275 °C.
On to `CC12CCC(C1)C1(C)Oc3ccc(C(=O)c4ccc(C=O)cc4)cc3C21C` (stereo unspecified), for which the melting point lay in the range of 138 to 142 °C.
In turn, `Cc1[nH]n(C2CCCC2)c2nc(C3CCN(C(=O)C(F)(F)F)CC3)nc(=O)c1-2` registered a melting point of 219 to 221 °C.
`CNc1c(F)cc2c(=O)c(C(=O)O)cn(-c3cc(N)c(F)cc3Cl)c2c1Cl` came in with a melting point of 273 °C.
Compound `CCc1c(CO)c(CO)c2n1-c1ccccc1C2` gave a melting point of 131 to 133 °C.
Compound `Cc1cc(C)c(/C=C2\C(=O)N(CO)c3ccccc32)[nH]1` displayed a melting point of 196 to 200 °C.
As for `CCc1c(-c2ccc(OC)cc2)c2c(CO)cc3cccc1n32`, the melting point is 97 to 100 °C.
`NC(=O)c1cc(NCc2cccc(Cl)c2)c([N+](=O)[O-])cc1[N+](=O)[O-]`: the melting point was 178 to 180 °C.
For `CCCn1nc2c(N)nc3ccccc3c2c1CC(C)(C)NC(=O)c1ccncc1`, the melting point was 148 to 150 °C.
As for `Cc1ccc2nc(-c3ccc(-c4ccccc4)cc3)nc(C(=O)O)c2c1`, the figure is 193 to 196 °C.
For the compound `O=C(C=Cc1ccc(F)cc1)C1CCCCC1`, the melting point fell in the range of 44 to 46 °C.
Take `C=CCc1cc(C=O)ccc1O`: the melting point was determined as 66 °C.
Compound `COC(=O)c1ccc(OC)c(N(C(C)=O)c2cc(Cl)cc(Cl)c2)c1` had a melting point of 100 to 101 °C.
In turn, `O=C(O)c1ccc(CN(C2CCCCC2)S(=O)(=O)c2ccc(F)cc2)cc1` displayed a melting point of 218 to 220 °C.
On to `COC(=O)c1snc(-c2ccc(OC)cc2)c1N`, for which the melting point lay in the range of 129 to 131 °C.
As for `O=c1oc(-c2cccc(Cl)c2)ns1`, the figure is 83 to 84.5 °C; as for `O=C(O)COC(=O)C=Cc1ccccc1`, 116 to 121 °C; as for `COC(=O)c1cccc(Oc2ccc(NC(=O)c3ccc([N+](=O)[O-])cc3Br)cc2NC(=O)c2ccc([N+](=O)[O-])cc2Br)c1C(=O)OC`, 138 to 142 °C.
The same measure for `Cc1cn(N=Cc2cccnc2)c(=O)n1CC#N`: 195 to 198 °C.
Turning to `CCCN1C(=O)C(NC(=O)Nc2cccc(N(C)c3nnn[nH]3)c2)N=C(N2CCN(C)CC2)c2ccccc21` (single isomer, unassigned; (-)), the melting point was in the range of 141 to 142 °C.
Turning to `CCCc1cc2c(c(C)c1O)CCO2`, the melting point was in the range of 72 to 73 °C.
The compound `O=C1Nc2ccccc2CO1` registered a melting point of 118 to 119 °C.
`O=C1c2ccccc2C(=O)N1c1ccc(Cl)cn1` returned a melting point of 153 to 155 °C.
